According to patent publication US20040018527A1, “Differential patterns of gene expression that predict for docetaxel chemosensitivity and chemo resistance” (priority 2002, published 2004):

What was measured:
[1] = tested on: MDA-MB-23 1 breast cancer cell line; settings: MDA-MB-23 1 cells overexpressing heat shock protein 27; cited from earlier work
[2] = tested on: locally advanced breast cancer; assay: phase II study with neoadjuvant docetaxel, clinical response (residual disease) after 4 cycles; type: in vivo, human
Source text: From September 1999 to June 2001, patients with locally advanced breast cancer (primary cancers greater than 4 cm, or with clinically evident axillary metastases) were considered for a phase II study with neoadjuvant docetaxel. The inclusion criteria were 1) age greater than 18 years and a diagnosis of breast cancer confirmed by core needle biopsy, 2) premenopausal status accompanied by appropriate contraception, 3) adequate performance status, and 4) adequate liver and kidney function tests (all within 1.5 times the upper limit of normal). Exclusion criteria included 1) severe underlying chronic illness or disease, and 2) treatment with other chemotherapeutic drugs while on study.
Clinical staging and size of primary tumor was recorded at the start of treatment, at each cycle, and after completion of 4 cycles of chemotherapy. Tumor size (product of the two largest perpendicular diameters) measured before and after 4 cycles of neoadjuvant chemotherapy was used to compute the percentage of residual disease. The median residual disease was then calculated, and this degree of response was then used to divide the cancers into 2 groups of sensitive and resistant categories of approximately equal numbers before gene expression analysis.
Core biopsies of the primary cancers were undertaken before administration of single agent docetaxel as neoadjuvant treatment. Docetaxel at 100 mg/m2 was given every three weeks for a total of 4 cycles, and clinical response assessed after the fourth cycle, at 12 weeks. As the standard of care, patients were continued on neoadjuvant chemotherapy through the full 4 cycles unless there was clear documentation of progressive disease, defined as increase in tumor size of more than 25%. Primary surgery and standard adjuvant therapy was then administered following completion of neoadjuvant docetaxel. In order to maximize the likelihood of obtaining sufficient tissue, approximately six core biopsies using a Bard MaxCore Biopsy Instrument (#MC1410) were taken. Biopsies were performed under local anesthesia, using the same entry point, but reorienting the needle. Two to three core biopsy specimens were immediately transferred for snap freezing at −80° C. for cDNA array analysis. The remaining specimens were fixed in formalin for diagnostic and possible immunohistochemical analysis.
The clinical characteristics of the 24 patients enrolled in this phase II neoadjuvant study are included in Table 1. Before treatment, the median tumor size was 8 cm (range 4 to 30 cm). Prior to gene expression analysis, the sensitivity and resistance was defined based on the percentage of residual disease after treatment. It was determined that the median residual disease after chemotherapy was 30%. Then, it was arbitrarily defined that sensitive tumors were those with 25% residual disease or less and resistant tumors were those with greater than 25% residual disease, as this cut-off divides the numbers of patients almost equally into two groups for statistical comparison. In addition, the presenting tumors were large in this study of locally advanced breast cancer, and tumor regressions of at least 75% following chemotherapy would almost certainly represent clinically responsive disease.

[3] = tested on: HSP27-overexpressing cell lines; settings: cited from earlier work

COc1cccc2c1C(=O)c1c(O)c3c(c(O)c1C2=O)C[C@@](O)(C(=O)CO)C[C@@H]3O[C@H]1C[C@H](N)[C@H](O)[C@H](C)O1 [Adriamycin]
association of HSP27 overexpression with drug resistance [1]: resistance

CC(=O)O[C@@]12CO[C@@H]1C[C@H](O)[C@@]1(C)C(=O)[C@H](O)C3=C(C)[C@@H](OC(=O)[C@H](O)[C@@H](NC(=O)OC(C)(C)C)c4ccccc4)C[C@@](O)([C@@H](OC(=O)c4ccccc4)[C@H]21)C3(C)C [docetaxel]
resistant tumors with residual tumors 100% or greater of baseline ([2]; 3/13 resistant tumors): 23% | sensitive tumors with minimal residual disease (<10% residual tumor) ([2]; 5/11 sensitive tumors): 45% | residual disease, independent cohort ([2]; 6 additional patients of the same clinical study, all 6 sensitive tumors): less than 25% | resistant tumors with residual tumors ≧60% ([2]; 7/13 resistant tumors): 58% | patients sensitive to docetaxel (25% residual disease or less) ([2]; 11 of 24 patients): 46% | patients resistant to docetaxel (greater than 25% residual disease) ([2]; 13 of 24 patients): 54% | median residual disease after chemotherapy ([2]; 24 patients, docetaxel 100 mg/m2 every three weeks, 4 cycles, tumor size after vs before, at 12 weeks): 30% | sensitivity to docetaxel [3]: remain sensitive
